Converted amounts (≈) assume the structure as drawn.
Tested on: ovolysozyme
Assay: AGE formation inhibitory action (lysozyme dimer formation with xylose, SDS-PAGE, silver staining)
Type: biochemical
Details: 1 mg/ml ovolysozyme, 100 mM xylose, pH 7.4, 37° C., 21 days; dimer (28.8 Kda) formation relative to control
Protocol: With respect to each test compound, solutions of the test compound in dimethyl sulfoxide, said solutions containing said test compound at various concentrations, were each added together with 1 mg/ml of ovolysozyme and 100 mM of xylose to a phosphate-buffered physiological saline of pH 7.4. Each reaction mixture was then incubated at 37° C. for 21 days. A portion of the reaction mixture, said portion being in a predetermined amount, was then separated by sodium lauryl sulfate-polyacrylamide gel electrophoresis (SDS-PAGE). After the electrophoresis, the gel was treated by silver staining to stain proteins. AGE formation inhibitory action of the test compound was calculated in terms of 50% inhibitory concentration by image-processing and analyzing the degree of formation of the dimer (28.8 Kda) of lysozyme (14.4 Kda) relative to that in a control, that is, a reaction mixture not added with the test compound while making use of NIH Image Ver. 1.55.

IC50 (AGE formation inhibitory action, 50% inhibitory concentration) [µg/mL]	SMILES
10 (≈ 33.6 µM)	Oc1cccc(C(O)CNCC2=Cc3ccccc3OC2)c1 (stereo not shown) [Compound 6]
30 (≈ 83.9 µM)	COc1cc(C(O)CNCC2=Cc3ccccc3OC2)cc(OC)c1O (stereo not shown) [Compound 9, 4-{2-[(2H-3-chromenylmethyl)amino]-1-hydroxyethyl}-2,6-dimethoxyphenol]
3 (≈ 8.74 µM)	COc1cccc2c1OCC(CNCC(O)c1ccc(O)c(O)c1)=C2 (stereo not shown) [Compound 15]

SMILES	IC50 (AGE formation inhibitory action, 50% inhibitory concentration) [µg/mL]
N=C(N)NN [Amionoguanidine, aminoguanidine, reference compound]	30 (≈ 405 µM)
